Assay results published in patent publication US5290698A, “Streptoverticillium ferm P-10489 which produces antitumor agent BE-13793C” (Banyu Pharmaceutical Co., Ltd., priority 1989, dated 1994).

Columns and labels:
P388/S tumor cells = assay: In vitro antitumor assay, growth inhibition of P388/S tumor cells (72 h, Coulter counter); assay type: cell-based; conditions: Mus musculus, 37° C., 5% CO2, 72 hours, read-out: concentration (IC50) causing 50% inhibition on P388/S tumor cell growth
Protocol: (§1) In vitro activity tests were performed for evaluating the inhibitory activities of the antitumor substance BE-13793C on mouse tumor cells. In the in vitro antitumor assay using P388 tumor cells, the test substance was first dissolved in dimethyl sulfoxide and the obtained solution was serially diluted with a cell culture medium containing 20% of dimethyl sulfoxide (20% v/v DMSO-RPMI-1640 medium). Then, 2 μl of the dilution was added to 200 μl of a cell culture medium (10% v/v fetal calf serum-RPMI-1640 medium) containing 2×10^4 or 3×10^4 tumor cells. Next, each mixture was incubated at 37° C. under 5% CO2 for 72 hours. The viable cells were then counted with a Coulter counter. The result was compared with the control data. […] The concentration (IC50) of the antitumor substance BE-13793C causing 50% inhibition on P388/S tumor cell growth was 0.7 μM, while that on P388/V cell growth was 0.7 μM.
(§2) The P388/S cells are commonly employed mouse leukemia cells while the P388/V cells are a strain of P388 leukemia cells which have acquired resistance to the anticancer agent vincristine.

P388/V cells = assay: In vitro antitumor assay, growth inhibition of vincristine-resistant P388/V cells; assay type: cell-based; conditions: Mus musculus, 37° C., 5% CO2, 72 hours, read-out: concentration (IC50) causing 50% inhibition on P388/V cell growth
Protocol: as §1, §2

P388/A cells = assay: Growth inhibition of adriamycin-resistant P388/A cells; assay type: cell-based; conditions: Mus musculus, read-out: 50% inhibitory concentration (IC50) on growth of P388/A cells
Protocol: as §1
Furthermore, the antitumor substance BE-13793C inhibited the growth of P388/A cells, which had acquired resistance to the anticancer agent adriamycin, and the 50% inhibitory concentration (IC50) thereof was 1.0 μM.

Ehrlich ascites cancer = assay: Effect on Ehrlich ascites cancer transplanted in mice (survival); assay type: in vivo, mouse; conditions: once a day 1st to 10th day; for MST (mean survival time): female ICR mice, control 13.1 day; for MST % T/C ((treated MST/control MST) × 100): ≥125 = marked antitumor effect
Text: In this assay, 10^6 (lethal dose) tumor cells per mouse were intraperitoneally administered. Then the test substance was serially diluted and intraperitoneally administered.
^1 Inoculum: 10^6 Ehrich ascites cancer cells, intraperitoneal.
^2 Host: Female ICR mice.
^3 Treatment schedule: BE13793C was intraperitoneally administered
once a day from the 1st to the 10th day.
^4 MST: Mean survival time (in days).
^5 % T/C: (Treated MST/control MST) × 100.
^6 Criteria: When % T/C ≥ 125, the test compound was considere
to produce a marked antitumor effect at the particular dose.

female ICR mice = assay: Acute toxicity on female ICR mice; assay type: in vivo, mouse; conditions: 100 mg/kg i.p. once, on the 5th day
Solubility = assay type: physicochemical
[1] = Acidity/neutrality/basicity; assay type: physicochemical

Question: What does the source list for `O=C1NC(=O)c2c1c1c3cccc(O)c3[nH]c1c1[nH]c3c(O)cccc3c21` [BE-13793C]?
Answer: IC50 (P388/S tumor cells): 700 nM; IC50 (P388/V cells): 700 nM; IC50 (P388/A cells): 1000 nM; MST (mean survival time) (Ehrlich ascites cancer; 8 mg/kg/injection i.p.): 16.0 days; MST % T/C ((treated MST/control MST) × 100) (Ehrlich ascites cancer; 8 mg/kg/injection i.p.): 122%; MST (mean survival time) (Ehrlich ascites cancer; 20 mg/kg/injection i.p.): 26.4 days; MST % T/C ((treated MST/control MST) × 100) (Ehrlich ascites cancer; 20 mg/kg/injection i.p.): 202%; MST (mean survival time) (Ehrlich ascites cancer; 50 mg/kg/injection i.p.): 28.6 days; MST % T/C ((treated MST/control MST) × 100) (Ehrlich ascites cancer; 50 mg/kg/injection i.p.): 218%; death (acute toxicity) (female ICR mice): no death was found; solubility in dimethyl sulfoxide (Solubility; dimethyl sulfoxide): highly soluble; solubility in methanol (Solubility; methanol): soluble; solubility in tetrahydrofuran (Solubility; tetrahydrofuran): highly soluble; solubility in water (Solubility; water): hardly soluble; Acidity/neutrality/basicity [1]: acidic
